Reference: ChEMBL document CHEMBL1201862, “PubChem BioAssay data set” (2004)
Calls of active or inactive are those of the source.

Legend:
[1] = molecular target: Ras and Rab interactor 1/Tyrosine-protein kinase ABL1 (Homo sapiens, UniProt P00519+Q13671); format: functional;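 note: biochemical TR-FRET dose-response test measuring inhibition of binding between Rin1 and Abl proteins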
[2] = molecular target: Potassium voltage-gated channel subfamily KQT member 2 (Rattus norvegicus, UniProt O88943); test: KCNQ2 potassium channel inhibitors, dose response, cell-based, automated electrophysiology, set II, rat KCNQ2 (AID 588637); format: functional
[3] = test system: BJ; test: cytotoxicity toward BJ-TERT fibroblasts, dose response, cell-based, RAS-independent, luminescence (AID 1933); format: functional; conditions: Homo sapiens
[4] = THP-1 cell cytotoxicity, dose response, cytotoxicity control for Vif-APOBEC3G degradation inhibitor project, THP-1 cells (AID 1117359); format: functional; conditions: Human immunodeficiency virus 1, THP-1
[5] = Luminescence Cell-Based Dose Retest to Confirm Inhibitors of Cancer Stem Cells. [Related pubchem assays (depositor defined):AID2717, AID2721]; format: functional; conditions: Homo sapiens
[6] = control 3'UTR Renilla luciferase suppression, dose response, counter-screen for Shn3 inhibitor project, cell-based, Clone20-Shn3RL, cherry-picked (AID 624133); format: functional
[7] = molecular target: Beta Lactamase (Pseudomonas aeruginosa, UniProt Q932Y6); test: beta-lactamase reporter inhibitor potency, dose response, artefact control for TLR9-MyD88 binding inhibitor project, BLA reporter cells, FRET fluorescence (AID 588341); format: cell-based;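 note: cell based assay in CHO-K1 cells stably expressing beta-lactamase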
[8] = molecular target: T1, Sentrin-specific protease 8 (Homo sapiens, UniProt Q96LD8); format: functional
T1 sequence (Q96LD8 whole entry): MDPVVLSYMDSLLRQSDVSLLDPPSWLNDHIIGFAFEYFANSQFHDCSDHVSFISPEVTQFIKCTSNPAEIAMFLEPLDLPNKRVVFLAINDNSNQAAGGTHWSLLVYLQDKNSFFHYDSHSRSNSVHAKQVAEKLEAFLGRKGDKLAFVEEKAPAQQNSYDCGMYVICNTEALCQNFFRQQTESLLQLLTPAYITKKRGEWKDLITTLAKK

[9] = test system: BJ; test: cells; format: functional, cell-based; conditions: Homo sapiens
[10] = molecular target: T2, Replicative DNA helicase DnaB (Mycobacterium tuberculosis, UniProt P9WMR3); test: DnaB intein splicing inhibitors, dose response, biochemical, cell-free fluorescence (AID 449749); format: functional
T2 sequence (P9WMR3 whole entry): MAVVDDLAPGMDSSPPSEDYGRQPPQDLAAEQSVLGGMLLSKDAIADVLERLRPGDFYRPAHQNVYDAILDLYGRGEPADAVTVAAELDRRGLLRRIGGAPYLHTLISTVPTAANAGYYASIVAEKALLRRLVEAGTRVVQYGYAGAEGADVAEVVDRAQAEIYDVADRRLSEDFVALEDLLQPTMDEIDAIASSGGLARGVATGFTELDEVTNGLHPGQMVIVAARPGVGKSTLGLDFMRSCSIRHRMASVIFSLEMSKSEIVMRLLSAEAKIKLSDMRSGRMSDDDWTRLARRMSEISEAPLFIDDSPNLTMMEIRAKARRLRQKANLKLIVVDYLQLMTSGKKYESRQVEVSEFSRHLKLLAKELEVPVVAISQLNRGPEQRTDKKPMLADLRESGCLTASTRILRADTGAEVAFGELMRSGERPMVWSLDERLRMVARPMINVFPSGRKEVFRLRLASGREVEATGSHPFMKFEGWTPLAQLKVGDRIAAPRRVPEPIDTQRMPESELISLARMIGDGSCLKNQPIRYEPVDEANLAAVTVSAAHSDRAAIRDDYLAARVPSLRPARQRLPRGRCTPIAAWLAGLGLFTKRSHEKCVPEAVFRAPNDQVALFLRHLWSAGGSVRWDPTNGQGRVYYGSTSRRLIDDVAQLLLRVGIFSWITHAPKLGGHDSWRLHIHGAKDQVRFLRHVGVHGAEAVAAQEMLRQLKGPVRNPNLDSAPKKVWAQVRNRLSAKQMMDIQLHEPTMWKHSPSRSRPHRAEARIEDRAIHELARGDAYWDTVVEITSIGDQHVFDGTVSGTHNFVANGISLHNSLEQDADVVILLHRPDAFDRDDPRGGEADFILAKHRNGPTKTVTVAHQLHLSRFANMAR

[11] = molecular target: T1, Sentrin-specific protease 8; format: functional; remark: listed apart in the source
[12] = Shn3 3'UTR reporter inhibitors, dose response, cell-based, Clone20 osteoblasts, firefly luciferase, cherry-picked (AID 624132); format: functional;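 note: firefly luciferase luminescence from reporter carrying the Shn3 3'UTR in osteoblasts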
[13] = molecular target: T3, Protein RecA (Mycobacterium tuberculosis, UniProt P9WHJ3); test: Fluorescence Cell-Free Homogeneous Dose Retest to Identify Inhibitors of RecA-Intein Splicing Activity. [Related pubchem assays (depositor defined):AID2097, AID2223, AID489010, AID492950]; format: functional
T3 sequence (P9WHJ3 whole entry): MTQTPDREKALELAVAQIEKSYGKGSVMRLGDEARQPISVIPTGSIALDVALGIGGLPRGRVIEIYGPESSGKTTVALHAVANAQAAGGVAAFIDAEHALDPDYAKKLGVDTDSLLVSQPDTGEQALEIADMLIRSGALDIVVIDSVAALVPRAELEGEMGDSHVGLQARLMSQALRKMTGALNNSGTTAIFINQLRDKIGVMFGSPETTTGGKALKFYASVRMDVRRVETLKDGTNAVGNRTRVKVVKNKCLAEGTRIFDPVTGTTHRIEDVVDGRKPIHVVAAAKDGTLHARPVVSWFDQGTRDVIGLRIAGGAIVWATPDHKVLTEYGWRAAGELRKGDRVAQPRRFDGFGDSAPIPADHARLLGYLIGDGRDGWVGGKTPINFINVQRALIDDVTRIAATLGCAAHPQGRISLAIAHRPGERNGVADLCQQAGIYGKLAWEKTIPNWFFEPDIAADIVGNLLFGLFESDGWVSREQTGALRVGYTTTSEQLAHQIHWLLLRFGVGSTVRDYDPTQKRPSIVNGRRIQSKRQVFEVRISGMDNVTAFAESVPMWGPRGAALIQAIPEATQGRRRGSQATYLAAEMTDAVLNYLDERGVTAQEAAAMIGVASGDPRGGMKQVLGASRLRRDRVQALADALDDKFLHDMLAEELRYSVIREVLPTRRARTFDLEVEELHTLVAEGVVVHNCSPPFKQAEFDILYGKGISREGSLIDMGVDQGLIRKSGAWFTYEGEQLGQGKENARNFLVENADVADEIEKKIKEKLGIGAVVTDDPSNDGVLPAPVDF

[14] = test system: CHO; test: cytotoxicity in TLR9-MyD88 CHO cells, dose response, cytotoxicity control for TLR9-MyD88 binding inhibitor project, cell-based, luminescence (AID 588339); format: functional, hamster; conditions: Cricetulus griseus;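 note: CHO cells stably coexpressing TLR9 and MyD88 fusions from primary screen; compound exposure lasted 48 hours before viability readout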
[15] = molecular target: T4, Fatty acid synthase (Homo sapiens, UniProt P49327); test: FAS thioesterase domain inhibitors, dose response, biochemical, endpoint fluorescence intensity, uHTS hits (AID 624327); format: functional;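 note: fluorescence from hydrolysis of an O-methyl fluorescein acyl ester substrate by the enzyme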
[16] = molecular target: Cytochrome P450 2D6 (Homo sapiens, UniProt P10635);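 note: CYP2D6 member of a cytochrome P450 panel assay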
[17] = molecular target: Beta-galactosidase (Escherichia coli, UniProt Q8VNN2); test: PubChem AID 485352; format: functional
[18] = molecular target: T4, Fatty acid synthase; test: FAS thioesterase domain inhibitors, dose response, biochemical, kinetic fluorescence intensity (AID 624326); format: functional;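 note: rate of fluorescence rise from hydrolysis of a fluorogenic O-methyl fluorescein ester substrate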
[19] = molecular target: Cytochrome P450 3A4 (Homo sapiens, UniProt P08684);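 note: CYP3A4 tested as one member of a cytochrome P450 panel screen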
[20] = HepG2 cell cytotoxicity, dose response, cytotoxicity control for Shn3 inhibitor project, CellTiter-Glo, cherry-picked (AID 624134); format: functional, cell-based
[21] = test system: BJ; test: cytotoxicity toward BJ-TERT-LT-ST fibroblasts, dose response, cell-based, RAS-independent, luminescence (AID 1935); format: functional; conditions: Homo sapiens;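 note: BJ fibroblasts immortalized with TERT plus LT and ST oncogenes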
[22] = molecular target: Glucose-6-phosphate 1-dehydrogenase (Homo sapiens, UniProt P11413); test: human G6PD enzyme inhibitors, dose response, selectivity assay for P. falciparum G6PD inhibitor project, biochemical, fluorescence (AID 504792); format: functional
[23] = cytotoxicity toward DRD oncogenic fibroblasts, dose response, cell-based, non-viral oncogenic, luminescence (AID 1934); format: functional; conditions: Homo sapiens
[24] = molecular target: T5, Type-1 angiotensin II receptor (Homo sapiens, UniProt P30556); test: AT1 receptor antagonists, dose response, selectivity assay for APJ receptor antagonist project, cell-based, uHTS hits (AID 463214); format: functional;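 note: antagonist potency against angiotensin II stimulated AT1 response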
T5 sequence (P30556 whole entry): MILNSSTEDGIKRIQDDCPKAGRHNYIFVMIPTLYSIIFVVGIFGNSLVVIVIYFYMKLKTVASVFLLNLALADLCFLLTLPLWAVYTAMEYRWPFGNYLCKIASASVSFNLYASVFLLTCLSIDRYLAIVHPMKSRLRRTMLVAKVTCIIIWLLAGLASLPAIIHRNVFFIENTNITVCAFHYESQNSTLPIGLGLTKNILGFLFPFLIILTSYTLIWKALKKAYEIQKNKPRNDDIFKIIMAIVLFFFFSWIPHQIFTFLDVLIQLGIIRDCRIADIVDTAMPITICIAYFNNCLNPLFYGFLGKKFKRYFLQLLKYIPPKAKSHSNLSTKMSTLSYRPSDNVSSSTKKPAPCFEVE

[25] = inhibitors of intracellular T. cruzi replication, confirmation, NIH3T3 host cells, beta-gal luminescence (AID 2044); format: functional, cell-based;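 note: intracellular parasites grown in NIH/3T3 mouse fibroblasts as host cells; luminescent beta-galactosidase reporter signal from transgenic T. cruzi replicating inside host cells; inhibitors lower the luminescence signal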
[26] = test system: HeLa; test: Cytotoxicity counterscreen assay for transcriptional activators of heat shock protein 70 (Hsp70). [Related pubchem assays: 1203, 1252 ]; format: functional; conditions: Homo sapiens;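 note: cells exposed to compound for 16 hours before readout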
[27] = cytotoxicity toward NIH3T3 fibroblasts, dose response, counter-screen, cell-based, ATP luminescence, mouse fibroblasts (AID 2010); format: functional;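 note: cells exposed to compound for about 90 hours before reading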
[28] = inhibitors of SNCA 5'UTR-driven reporter translation, confirmation, H4 neuroglioma cells, luminescence (AID 1988); format: functional, cell-based
[29] = inhibitors of firefly luciferase expression or activity, dose response, H4 neuroglioma cells, luminescence (AID 1990); format: functional, cell-based
[30] = Luminescence Cell-Based Dose Response HTS to Identify Inhibitors of 5'UTR Stem-Loop Driven Prion Protein mRNA Translation in H4 Neuroglioblastoma Cells. [Related pubchem assays: 1827 (Project Summary), 1813 (Primary HTS)]; format: functional
[31] = molecular target: Mitogen-activated protein kinase 9 (Homo sapiens, UniProt P45984); format: functional;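 note: value from a kinome panel profiling assay, MAPK9 panel entry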
[32] = molecular target: Dual specificity protein kinase CLK4 (Homo sapiens, UniProt Q9HAZ1); format: functional
[33] = molecular target: Insulin-like growth factor 1 receptor (Homo sapiens, UniProt P08069); test: Navigating the Kinome. Panel member name: IGF1R; format: functional
[34] = molecular target: Ribosomal protein S6 kinase alpha-3 (Homo sapiens, UniProt P51812); format: functional;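 note: measured within a kinome-wide profiling panel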
[35] = molecular target: Leukocyte tyrosine kinase receptor (Homo sapiens, UniProt P29376); test: Navigating the Kinome. Panel member name: LTK; format: functional
[36] = molecular target: Fibroblast growth factor receptor 1 (Homo sapiens, UniProt P11362); format: functional
[37] = molecular target: Dual specificity mitogen-activated protein kinase kinase 2 (Homo sapiens, UniProt P36507); test: Navigating the Kinome. Panel member name: MAP2K2; format: functional
[38] = molecular target: Protein kinase C theta type (Homo sapiens, UniProt Q04759); test: Navigating the Kinome. Panel member name: PRKCQ; format: functional
[39] = molecular target: High affinity nerve growth factor receptor (Homo sapiens, UniProt P04629); format: functional;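 note: NTRK1 tested as one member of a kinome-wide profiling panel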
[40] = molecular target: Activated CDC42 kinase 1 (Homo sapiens, UniProt Q07912); test: Navigating the Kinome. Panel member name: ACK1; format: functional
[41] = molecular target: T6, cAMP-dependent protein kinase catalytic subunit PRKX (Homo sapiens, UniProt P51817); format: functional
T6 sequence (P51817 whole entry): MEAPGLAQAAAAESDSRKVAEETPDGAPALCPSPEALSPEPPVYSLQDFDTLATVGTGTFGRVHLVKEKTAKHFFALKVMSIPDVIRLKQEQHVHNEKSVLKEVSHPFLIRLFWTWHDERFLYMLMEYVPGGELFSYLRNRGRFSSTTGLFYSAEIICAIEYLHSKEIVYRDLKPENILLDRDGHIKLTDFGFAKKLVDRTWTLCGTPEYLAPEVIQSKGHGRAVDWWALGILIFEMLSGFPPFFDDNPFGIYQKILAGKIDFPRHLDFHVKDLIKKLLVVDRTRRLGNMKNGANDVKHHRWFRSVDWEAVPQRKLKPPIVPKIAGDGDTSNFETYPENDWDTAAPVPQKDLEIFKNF

T4 sequence (P49327 whole entry, the tested form may be a part): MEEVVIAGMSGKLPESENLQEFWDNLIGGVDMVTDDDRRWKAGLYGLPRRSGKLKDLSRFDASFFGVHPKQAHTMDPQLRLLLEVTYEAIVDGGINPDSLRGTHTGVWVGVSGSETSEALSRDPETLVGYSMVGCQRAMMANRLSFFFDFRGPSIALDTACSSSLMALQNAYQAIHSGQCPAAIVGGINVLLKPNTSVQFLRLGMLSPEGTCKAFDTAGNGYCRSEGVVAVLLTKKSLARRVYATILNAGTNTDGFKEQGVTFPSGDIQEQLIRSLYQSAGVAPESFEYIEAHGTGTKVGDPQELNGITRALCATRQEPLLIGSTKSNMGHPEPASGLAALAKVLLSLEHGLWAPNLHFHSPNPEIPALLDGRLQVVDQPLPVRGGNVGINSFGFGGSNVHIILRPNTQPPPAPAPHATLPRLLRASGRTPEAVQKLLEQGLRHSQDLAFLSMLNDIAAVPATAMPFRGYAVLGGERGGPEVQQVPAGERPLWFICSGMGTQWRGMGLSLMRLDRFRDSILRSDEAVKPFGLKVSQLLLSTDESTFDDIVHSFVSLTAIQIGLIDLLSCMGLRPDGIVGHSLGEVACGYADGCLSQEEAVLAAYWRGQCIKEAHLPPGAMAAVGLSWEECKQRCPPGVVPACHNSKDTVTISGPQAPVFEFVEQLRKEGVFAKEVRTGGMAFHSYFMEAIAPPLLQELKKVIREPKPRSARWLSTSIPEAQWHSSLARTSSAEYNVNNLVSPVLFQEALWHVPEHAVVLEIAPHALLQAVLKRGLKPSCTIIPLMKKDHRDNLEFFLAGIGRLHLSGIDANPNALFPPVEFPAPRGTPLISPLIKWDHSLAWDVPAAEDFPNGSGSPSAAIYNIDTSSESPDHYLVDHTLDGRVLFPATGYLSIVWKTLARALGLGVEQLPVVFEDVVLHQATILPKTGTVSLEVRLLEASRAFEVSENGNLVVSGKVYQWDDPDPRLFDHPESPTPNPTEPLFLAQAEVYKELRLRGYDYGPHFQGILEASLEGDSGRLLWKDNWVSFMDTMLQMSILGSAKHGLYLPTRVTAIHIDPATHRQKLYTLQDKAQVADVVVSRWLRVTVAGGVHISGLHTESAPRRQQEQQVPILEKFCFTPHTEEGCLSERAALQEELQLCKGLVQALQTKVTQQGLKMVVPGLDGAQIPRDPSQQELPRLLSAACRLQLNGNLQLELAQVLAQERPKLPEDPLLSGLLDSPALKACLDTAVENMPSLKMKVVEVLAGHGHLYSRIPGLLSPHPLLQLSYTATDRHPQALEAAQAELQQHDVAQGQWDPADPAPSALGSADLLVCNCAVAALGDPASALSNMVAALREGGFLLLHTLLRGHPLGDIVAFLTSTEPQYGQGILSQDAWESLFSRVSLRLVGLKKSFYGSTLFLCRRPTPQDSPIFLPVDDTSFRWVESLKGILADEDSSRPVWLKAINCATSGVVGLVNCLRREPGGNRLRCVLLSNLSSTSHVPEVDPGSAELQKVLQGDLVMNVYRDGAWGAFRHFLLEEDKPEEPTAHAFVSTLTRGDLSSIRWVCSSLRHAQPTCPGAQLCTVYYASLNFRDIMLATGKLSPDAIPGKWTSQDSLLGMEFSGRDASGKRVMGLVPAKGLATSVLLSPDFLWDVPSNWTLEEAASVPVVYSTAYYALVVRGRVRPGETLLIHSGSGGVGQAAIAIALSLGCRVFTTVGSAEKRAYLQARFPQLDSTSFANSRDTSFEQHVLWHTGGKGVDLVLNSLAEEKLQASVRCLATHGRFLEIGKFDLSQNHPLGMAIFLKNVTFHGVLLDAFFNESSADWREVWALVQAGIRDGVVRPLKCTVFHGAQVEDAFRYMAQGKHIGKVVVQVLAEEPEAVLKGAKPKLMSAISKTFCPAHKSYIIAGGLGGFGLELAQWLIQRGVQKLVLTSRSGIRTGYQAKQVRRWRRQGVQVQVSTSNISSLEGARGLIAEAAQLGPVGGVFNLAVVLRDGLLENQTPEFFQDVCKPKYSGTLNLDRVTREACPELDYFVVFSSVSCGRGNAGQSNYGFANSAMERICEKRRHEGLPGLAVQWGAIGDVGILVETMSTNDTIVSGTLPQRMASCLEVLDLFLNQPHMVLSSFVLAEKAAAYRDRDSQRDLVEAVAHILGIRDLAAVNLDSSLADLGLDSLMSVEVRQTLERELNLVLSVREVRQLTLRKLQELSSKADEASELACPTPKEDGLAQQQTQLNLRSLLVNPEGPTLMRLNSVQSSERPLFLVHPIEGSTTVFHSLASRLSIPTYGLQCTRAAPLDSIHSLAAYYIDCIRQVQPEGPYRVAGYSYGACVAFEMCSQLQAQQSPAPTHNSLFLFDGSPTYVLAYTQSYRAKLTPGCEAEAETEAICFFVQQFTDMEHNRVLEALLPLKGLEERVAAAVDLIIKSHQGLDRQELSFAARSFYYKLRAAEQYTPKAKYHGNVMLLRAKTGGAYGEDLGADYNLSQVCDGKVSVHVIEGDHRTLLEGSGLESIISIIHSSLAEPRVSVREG
Chain of Beta Lactamase (Q932Y6 whole entry): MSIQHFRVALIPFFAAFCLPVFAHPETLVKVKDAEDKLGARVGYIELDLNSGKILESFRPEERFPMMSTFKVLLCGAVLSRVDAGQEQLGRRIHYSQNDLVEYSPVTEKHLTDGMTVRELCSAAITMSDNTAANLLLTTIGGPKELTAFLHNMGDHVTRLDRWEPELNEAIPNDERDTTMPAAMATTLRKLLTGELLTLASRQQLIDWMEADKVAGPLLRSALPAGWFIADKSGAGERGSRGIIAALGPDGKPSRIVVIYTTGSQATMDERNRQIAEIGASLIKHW
Chain of Glucose-6-phosphate 1-dehydrogenase (P11413 whole entry): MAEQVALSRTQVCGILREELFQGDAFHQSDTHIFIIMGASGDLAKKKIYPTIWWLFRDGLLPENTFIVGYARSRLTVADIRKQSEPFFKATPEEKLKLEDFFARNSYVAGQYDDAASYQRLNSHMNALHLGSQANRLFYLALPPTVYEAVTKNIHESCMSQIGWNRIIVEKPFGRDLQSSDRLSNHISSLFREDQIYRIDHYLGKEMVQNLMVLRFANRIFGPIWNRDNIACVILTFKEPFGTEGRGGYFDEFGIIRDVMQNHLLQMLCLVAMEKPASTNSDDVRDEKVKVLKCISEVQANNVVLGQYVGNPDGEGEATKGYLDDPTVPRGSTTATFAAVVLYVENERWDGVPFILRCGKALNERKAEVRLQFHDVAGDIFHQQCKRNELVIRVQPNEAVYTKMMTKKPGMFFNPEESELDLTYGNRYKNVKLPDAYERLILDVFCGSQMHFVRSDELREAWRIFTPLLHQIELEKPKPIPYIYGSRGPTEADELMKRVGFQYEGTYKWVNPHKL
Chain of Potassium voltage-gated channel subfamily KQT member 2 (O88943 whole entry): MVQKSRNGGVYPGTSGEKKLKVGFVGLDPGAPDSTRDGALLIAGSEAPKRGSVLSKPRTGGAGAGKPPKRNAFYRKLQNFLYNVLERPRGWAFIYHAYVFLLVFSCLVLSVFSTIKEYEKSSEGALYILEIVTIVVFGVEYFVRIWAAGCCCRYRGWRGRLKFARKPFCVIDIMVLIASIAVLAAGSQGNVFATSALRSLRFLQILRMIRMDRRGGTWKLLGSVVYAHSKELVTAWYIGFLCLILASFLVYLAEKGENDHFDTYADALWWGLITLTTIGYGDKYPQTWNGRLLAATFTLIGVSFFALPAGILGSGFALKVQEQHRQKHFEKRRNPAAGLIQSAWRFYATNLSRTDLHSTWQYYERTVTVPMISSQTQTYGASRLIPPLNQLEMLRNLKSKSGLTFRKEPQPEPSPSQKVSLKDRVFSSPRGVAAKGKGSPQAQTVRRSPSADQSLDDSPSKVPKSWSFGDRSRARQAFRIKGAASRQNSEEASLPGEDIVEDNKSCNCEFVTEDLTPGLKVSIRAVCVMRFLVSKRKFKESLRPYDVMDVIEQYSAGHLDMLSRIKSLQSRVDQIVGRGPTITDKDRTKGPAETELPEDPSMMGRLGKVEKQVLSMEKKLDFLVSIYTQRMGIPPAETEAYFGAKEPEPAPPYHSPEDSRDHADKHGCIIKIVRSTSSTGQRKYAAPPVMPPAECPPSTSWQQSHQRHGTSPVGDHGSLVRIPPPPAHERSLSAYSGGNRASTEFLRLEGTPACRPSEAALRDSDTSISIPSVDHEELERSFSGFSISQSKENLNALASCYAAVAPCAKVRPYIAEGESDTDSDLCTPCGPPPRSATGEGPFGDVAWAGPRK
Chain of Dual specificity mitogen-activated protein kinase kinase 2 (P36507 whole entry): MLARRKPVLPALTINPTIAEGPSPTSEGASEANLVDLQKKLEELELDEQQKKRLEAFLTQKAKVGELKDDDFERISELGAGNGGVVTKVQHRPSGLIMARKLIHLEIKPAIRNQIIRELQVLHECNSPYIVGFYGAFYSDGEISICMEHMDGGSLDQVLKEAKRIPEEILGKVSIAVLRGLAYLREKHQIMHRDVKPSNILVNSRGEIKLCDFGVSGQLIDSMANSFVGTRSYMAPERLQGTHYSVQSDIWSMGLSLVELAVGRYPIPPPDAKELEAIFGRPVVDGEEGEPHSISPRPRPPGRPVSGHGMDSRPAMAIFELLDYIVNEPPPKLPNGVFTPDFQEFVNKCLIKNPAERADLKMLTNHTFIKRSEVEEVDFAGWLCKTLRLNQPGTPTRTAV
Chain of Cytochrome P450 2D6 (P10635 whole entry): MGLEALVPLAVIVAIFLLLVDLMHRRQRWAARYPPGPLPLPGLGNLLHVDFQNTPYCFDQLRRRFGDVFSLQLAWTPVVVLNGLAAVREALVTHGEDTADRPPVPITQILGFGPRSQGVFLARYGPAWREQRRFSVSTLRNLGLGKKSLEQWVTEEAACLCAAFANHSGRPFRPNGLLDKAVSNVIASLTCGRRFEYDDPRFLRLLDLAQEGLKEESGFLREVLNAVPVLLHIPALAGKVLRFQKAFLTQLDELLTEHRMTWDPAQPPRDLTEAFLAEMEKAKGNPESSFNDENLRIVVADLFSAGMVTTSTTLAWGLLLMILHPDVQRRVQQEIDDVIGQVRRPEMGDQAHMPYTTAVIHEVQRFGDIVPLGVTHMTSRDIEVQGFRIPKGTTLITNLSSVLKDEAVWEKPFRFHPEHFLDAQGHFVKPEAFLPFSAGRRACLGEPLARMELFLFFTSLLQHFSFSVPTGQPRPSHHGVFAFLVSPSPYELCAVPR

CC1(c2nnc(-c3ccncc3)o2)CC(c2ccc(F)cc2)=NO1 (configuration not stated)
inactive: IC50 [1] 10.8 µM

Cc1ccc(-c2cc(C(=O)N3CC(C)OC(C)C3)c3ccccc3n2)o1 (configuration not stated)
active: IC50 [2] 610 nM

CN(CCO)c1cc(Sc2nc3ccccc3s2)c2nonc2c1[N+](=O)[O-]
active: EC50 [3] 1.96 µM | CC50 [4] > 40 µM | AC50 [5] 1.62 µM | AC50 [6] 8.18 µM | IC50 [7] 8.89 µM | IC50 [8] 18.8 µM | EC50 [9] 4.12 µM | AC50 [10] 1.26 µM | IC50 [11] 28.1 µM | AC50 [12] 1.55 µM | EC50 [13] 0.49 µM | IC50 [14] 1.69 µM | IC50 [15] 2.32 µM | IC50 [18] 2.14 µM | AC50 [20] 29.3 µM | EC50 [23] 5.92 µM | IC50 [24] 2.08 µM
inactive: EC50 [17] > 40 µM | IC50 [22] > 80 µM
inconclusive: AC50 [16] 22.4 µM | AC50 [19] 22.4 µM | EC50 [21] 4.95 µM

O=Cc1s/c(=N\S(=O)(=O)c2ccccc2)n(CCCCl)c1Cl
active: EC50 [25] 1.39 µM | EC50 [27] 2.82 µM | EC50 [28] 9.57 µM | AC50 [10] 4.19 µM | EC50 [13] 34.9 µM | IC50 [14] 1.03 µM | IC50 [15] 6.11 µM | IC50 [18] 3.15 µM
> 60 µM (not active): EC50 [29]
inactive: IC50 [7] 19.5 µM
> 3.67 µM (not active): CC50 [26]
> 120 µM (not active): EC50 [30]

Nc1nccc2nc(-c3ccccc3)cn12
active: Ki [31] 100 µM | Ki [32] 79.4 µM | Ki [33] 39.8 µM | Ki [34] 50.1 µM | Ki [35] 50.1 µM | Ki [36] 79.4 µM | Ki [37] 79.4 µM | Ki [38] 50.1 µM | Ki [39] 31.6 µM | Ki [40] 15.8 µM | Ki [41] 79.4 µM
